Results from US20100280268A1, “H[…] RESOLVED FL[…] TEST SYSTEM” (priority 2006, published 2010).
Ends that are not written are not given here.

Target: T1, HIV six-helix bundle of gp41 (IQN36 / C34) (Human immunodeficiency virus type 1 group M subtype B, UniProt P04578)
T1 construct: made in house; host or cells: chemical peptide synthesis, no expression host
Test: HIV-FRET IQN36/C34 homogeneous time resolved fluorescence test system (6-helix bundle formation)
Assay type: binding, Human Immunodeficiency Virus (HIV-1)
Procedure: All reagents were dissolved in 100 mM Hepes buffer pH 7.2. Test compounds were serially diluted and then added to 384-well plates. A final concentration of 10 nM S-APC and 100 nM IQN36-biotin were mixed in tubes, incubated for 30 min at room temperature and then added to well containing test compound. The compound/S-APC/IQN36-biotin mixture was incubated for another 2 hours at room temperature.

Molecule | IC50 [nM]
COC(=O)c1cc(Cc2cc(Cc3ccc(NS(=O)(=O)c4ccc(C)cc4)c(C(=O)O)c3)cc(C(=O)O)c2NS(=O)(=O)c2ccc(C)cc2)ccc1NS(=O)(=O)c1ccc(C)cc1 [Compound 1] | 3270
Cc1ccc(S(=O)(=O)Nc2ccc(Oc3ccc(NS(=O)(=O)c4ccc(C)cc4)c(C(=O)O)c3)cc2OCc2ccccc2)cc1 [Compound 2, 5-[3-Benzyloxy-4-(toluene-4-sulfonylamino)-phenoxy]-2-(toluene-4-sulfonylamino)-benzoic acid] | 2720
Cc1ccc(S(=O)(=O)Nc2ccc(Oc3ccc4c(c3)CCCN4S(=O)(=O)c3ccc(C)cc3)cc2C(=O)O)cc1 [Compound 3, 2-(4-methylphenylsulfonamino)-5-[1-(toluene-4-sulfonyl)-1,2,3,4-tetrahydro-quinolin-6-yloxy]-benzoic acid] | 2880
CCCCCCN(c1ccc(Oc2ccc(NS(=O)(=O)c3ccc(C)cc3)c(C(=O)O)c2)cc1)S(=O)(=O)c1ccc(C)cc1 [Compound 4, 5-{4-[Hexyl-(toluene-4-sulfonyl)-amino]-phenoxy}-2-(4-methylphenylsulfonamino)-benzoic acid] | 4450
CCCCCOc1cc(Oc2ccc(NS(=O)(=O)c3ccc(C)cc3)c(C(=O)O)c2)ccc1NS(=O)(=O)c1ccc(C)cc1 [Compound 5, 5-[3-pentyloxy-4-(toluene-4-sulfonylamino)-phenoxy]-2-(toluene-4-sulfonylamino)-benzoic acid] | 3480
Cc1ccc(S(=O)(=O)Nc2ccc(Oc3ccc(NS(=O)(=O)c4ccc(C)cc4)c(-c4ccccc4)c3)cc2C(=O)O)cc1 [Compound 6, 2-(Toluene-4-sulfonylamino)-5-[6-(toluene-4-sulfonylamino)-biphenyl-3-yloxy]-benzoic acid] | 3160
Cc1ccc(S(=O)(=O)Nc2ccc(Oc3ccc(NS(=O)(=O)c4ccc(C)cc4)c(C(=O)O)c3)cc2OCC(C)C)cc1 [Compound 7, 5-[3-Isobutoxy-4-(toluene-4-sulfonylamino)-phenoxy]-2-(toluene-4-sulfonylamino)-benzoic acid] | 3270
Cc1ccc(S(=O)(=O)Nc2ccc(Oc3ccc(NS(=O)(=O)c4ccc(C)cc4)c(C(=O)O)c3)cc2NCc2ccccc2)cc1 [Compound 8, 5-[3-Benzylamino-4-(toluene-4-sulfonylamino)-phenoxy]-2-(toluene-4-sulfonylamino)-benzoic acid] | 2270
CCCCNc1cc(Oc2ccc(NS(=O)(=O)c3ccc(C)cc3)c(C(=O)O)c2)ccc1NS(=O)(=O)c1ccc(C)cc1 [Compound 9, 5-[3-Butylamino-4-(toluene-4-sulfonylamino)-phenoxy]-2-(toluene-4-sulfonylamino)-benzoic acid] | 1810
Cc1ccc(S(=O)(=O)Nc2ccc(Oc3ccc(NS(=O)(=O)c4ccc(C)cc4)c(N(C)Cc4ccccc4)c3)cc2C(=O)O)cc1 [Compound 10, 5-[3-(Benzyl-methyl-amino)-4-(toluene-4-sulfonylamino)-phenoxy]-2-(toluene-4-sulfonylamino)-benzoic acid] | 2640
CCNc1cc(Oc2ccc(NS(=O)(=O)c3ccc(C)cc3)c(C(=O)O)c2)ccc1NS(=O)(=O)c1ccc(C)cc1 [Compound 11, 5-[3-Ethylamino-4-(toluene-4-sulfonylamino)-phenoxy]-2-(toluene-4-sulfonylamino)-benzoic acid] | 2470
Cc1ccc(S(=O)(=O)Nc2ccc(Oc3ccc(NS(=O)(=O)c4ccc(C)cc4)c(C(=O)O)c3)cc2Cc2ccccc2)cc1 [Compound 12, 5-[3-Benzyl-4-(toluene-4-sulfonylamino)-phenoxy]-2-(toluene-4-sulfonylamino)-benzoic acid] | 2090
CNc1cc(Oc2ccc(NS(=O)(=O)c3ccc(C)cc3)c(C(=O)O)c2)ccc1NS(=O)(=O)c1ccc(C)cc1 [Compound 13, 5-[3-Methylamino-4-(toluene-4-sulfonylamino)-phenoxy]-2-(toluene-4-sulfonylamino)-benzoic acid] | 2690
NFYDPLVFPSDEFDASISQVNEKINQSLAFIRKSDELLHNVNAGK [Compound C45, reference compound] | > 10000
